The first test deals with Acetylcholinesterase (Homo sapiens, UniProt P22303). Nature of the test: Assay of Substrate Hydrolysis. To be noted: pH 7; 25 °C. As to the method: (§1) Assays were conducted at 25 C in 20 mM sodium phosphate buffer (pH 7.0) and 0.01% bovine serum albumin unless otherwise noted. AChE concentrations were varied to optimize measured rates.
Chain of Acetylcholinesterase (Homo sapiens, UniProt P22303) (P22303 whole entry): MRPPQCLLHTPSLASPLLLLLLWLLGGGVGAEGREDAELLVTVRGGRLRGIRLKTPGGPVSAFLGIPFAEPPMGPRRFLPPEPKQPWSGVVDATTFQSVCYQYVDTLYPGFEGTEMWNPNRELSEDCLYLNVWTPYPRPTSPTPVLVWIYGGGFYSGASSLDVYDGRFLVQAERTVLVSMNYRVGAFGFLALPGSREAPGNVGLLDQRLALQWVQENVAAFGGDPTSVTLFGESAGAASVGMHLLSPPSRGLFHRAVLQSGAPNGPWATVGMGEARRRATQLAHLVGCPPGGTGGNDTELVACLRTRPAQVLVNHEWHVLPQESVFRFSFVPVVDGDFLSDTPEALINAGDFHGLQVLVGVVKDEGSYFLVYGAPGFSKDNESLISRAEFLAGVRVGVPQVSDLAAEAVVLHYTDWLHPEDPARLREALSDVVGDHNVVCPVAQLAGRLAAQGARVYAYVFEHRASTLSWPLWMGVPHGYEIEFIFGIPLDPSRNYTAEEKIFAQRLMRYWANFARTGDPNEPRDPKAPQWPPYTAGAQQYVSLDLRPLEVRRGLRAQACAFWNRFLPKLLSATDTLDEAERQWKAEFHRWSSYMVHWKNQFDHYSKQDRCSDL
Usually Ki stands for the dissociation constant of the complex between target and ligand, obtained from inhibition or displacement. A low value points to tighter binding. `COc1cc(-c2cc3c(c(=O)o2)C[C@]2(O)[C@@]4(C)C(=O)C=CC(C)(C)[C@]4(O)CC[C@@]2(C)O3)cc(OC)c1OC` returned a Ki of 1.7 nM.

Turning to `CCC1=C[C@@H]2Cc3nc4cc(Cl)ccc4c(N)c3[C@H](C1)C2` (racemic) [(1S)-7-chloro-15-ethyl-10-azatetracyclo[11.3.1.0^{2,11}.0^{4,9}]heptadeca-2(11),3,5,7,9,14-hexaen-3-amine], the Ki worked out at 0.026 nM.

Take `C/C=C1\C2C=C(C)CC1(N)c1ccc(=O)[nH]c1C2` (stereo not drawn) [(+)-Huperzine A]: the Ki was 4.6 nM.

`COc1cc2c(c3oc(=O)c4c(c13)CCC4=O)[C@@H]1C=CO[C@@H]1O2` [Aflatoxin B1] showed an inhibitory constant (Ki) of 28000 nM.

Consider `Cc1cccc2c3c(ccc12)C1=C(C(=O)C3=O)[C@@H](C)CO1` [Dihydrotanshinone I], for which the Ki worked out at 750 nM.

Molecule `Cc1ccc2c(c1)sc(-c1ccc(N(C)C)cc1)[n+]2C` [Thioflavin T, 1] returned an inhibition constant (Ki) of 1000 nM.

A further test concerns the target T1, Acetylcholinesterase (Mus musculus, UniProt P21836).
T1 sequence (P21836 whole entry): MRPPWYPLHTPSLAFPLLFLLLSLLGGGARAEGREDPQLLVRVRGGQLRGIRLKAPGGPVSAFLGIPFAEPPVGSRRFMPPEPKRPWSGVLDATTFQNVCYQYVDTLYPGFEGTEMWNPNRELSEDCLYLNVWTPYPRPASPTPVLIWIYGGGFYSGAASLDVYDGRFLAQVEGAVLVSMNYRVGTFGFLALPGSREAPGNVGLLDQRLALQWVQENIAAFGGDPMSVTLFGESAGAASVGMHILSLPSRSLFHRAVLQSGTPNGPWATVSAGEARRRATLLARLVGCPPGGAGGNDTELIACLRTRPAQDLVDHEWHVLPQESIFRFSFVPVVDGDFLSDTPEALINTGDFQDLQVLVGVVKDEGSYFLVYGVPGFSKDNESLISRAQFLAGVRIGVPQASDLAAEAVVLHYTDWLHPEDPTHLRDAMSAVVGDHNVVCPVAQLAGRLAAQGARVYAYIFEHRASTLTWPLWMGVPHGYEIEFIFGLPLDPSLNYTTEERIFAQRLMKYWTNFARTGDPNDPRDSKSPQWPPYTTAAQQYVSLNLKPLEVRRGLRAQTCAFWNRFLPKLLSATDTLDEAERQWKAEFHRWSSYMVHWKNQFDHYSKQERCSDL
Nature of the test: Assay of Substrate Hydrolysis. Conditions: pH 7; 25 °C. As to the method: as §1
Turning to `O=c1ccc2ccccc2o1` [2H-chromen-2-one], the Ki is 9300 nM.

`CC[N+](C)(C)c1cccc(O)c1` [Edrophonium Chloride, 3] displayed an inhibitory constant (Ki) of 250 nM.

In the case of `C[n+]1c2ccccc2cc2ccccc21` [N-methylacridinium], the Ki came to 310 nM.

(Values after BindingDB's records for doi:10.1021/bi401043w (Mayo Clinic, 2013).)
